Measured values from patent US20250230193A1, “CYCLIC COMPOUND HAVING SELECTIVE KRAS INHIBITORY EFFECT ON HRAS AND NRAS” (CHUGAI SEIYAKU KABUSHIKI KAISHA, priority 2022, published 2025).

Key:
[1] = target: GDP-bound HRAS wild-type protein (Homo sapiens, UniProt P01112); test: Binding to HRAS by surface plasmon resonance (SPR), Single Cycle Kinetics; conditions: KD ratio, GDP-bound HRAS wild-type vs GDP-bound KRAS wild-type, SPR
[2] = target: GDP-bound NRAS wild-type protein (Homo sapiens, UniProt P01111); test: Binding to NRAS by surface plasmon resonance (SPR), Single Cycle Kinetics; conditions: KD ratio, GDP-bound NRAS wild-type vs GDP-bound KRAS wild-type, SPR
Chain of GDP-bound NRAS wild-type protein (P01111 whole entry): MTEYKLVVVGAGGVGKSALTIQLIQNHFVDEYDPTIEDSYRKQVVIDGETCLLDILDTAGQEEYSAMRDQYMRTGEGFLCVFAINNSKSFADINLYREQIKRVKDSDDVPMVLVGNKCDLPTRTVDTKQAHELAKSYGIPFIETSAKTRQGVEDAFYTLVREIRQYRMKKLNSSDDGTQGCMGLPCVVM

Chain of GDP-bound HRAS wild-type protein (P01112 whole entry): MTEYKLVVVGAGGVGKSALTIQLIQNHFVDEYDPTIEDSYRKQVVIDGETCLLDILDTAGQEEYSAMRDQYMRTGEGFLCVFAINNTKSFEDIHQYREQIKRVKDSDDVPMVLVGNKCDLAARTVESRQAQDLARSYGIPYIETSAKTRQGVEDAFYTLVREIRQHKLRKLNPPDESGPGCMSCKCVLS

| SMILES | HRAS/KRAS (ratio of KD value for HRAS to KD value for KRAS) [1] | NRAS/KRAS (ratio of KD value for NRAS to KD value for KRAS) [2] |
| --- | --- | --- |
| CCC[C@H]1C(=O)N[C@@H]([C@@H](C)CC)C(=O)N(C)CC(=O)N(C)[C@H]2C/C=C\CCN(C2=O)[C@@H](Cc2ccc(C)cc2)C(=O)N(C)CC(=O)N[C@@H](CCc2ccc(C(F)(F)F)c(OC)c2)C(=O)N2C[C@H](C)C[C@H]2C(=O)NC2(CCC2)C(=O)N(C)[C@@H](C2CCCC2)C(=O)N(C)[C@H](C(=O)N(C)C)CC(=O)N1C [PP1859] | A (a compound having 10 or more and less than 20 is denoted as A) | A (a compound having 10 or more and less than 20 is denoted as A) |
| CCC[C@H]1C(=O)N[C@@H]([C@@H](C)CC)C(=O)N(C)CC(=O)N(C)[C@H]2C/C=C\CCN(C2=O)[C@@H](Cc2ccc(C)cc2)C(=O)N(C)CC(=O)N[C@@H](CCc2cc(F)c(C(F)(F)F)c(F)c2)C(=O)N2C[C@@H](C)C[C@H]2C(=O)NC2(CCC2)C(=O)N(C)[C@@H](C2CCCC2)C(=O)N(C)[C@H](C(=O)N(C)CC)CC(=O)N1C [PP1860] | A (a compound having 10 or more and less than 20 is denoted as A) | A (a compound having 10 or more and less than 20 is denoted as A) |
| CC[C@H](C)[C@@H]1NC(=O)[C@H](CC2CC2)N(C)C(=O)C[C@@H](C(=O)N(C)C)N(C)C(=O)[C@H](C2CCCC2)N(C)C(=O)C2(CCC2)NC(=O)[C@@H]2C[C@H](C)CN2C(=O)[C@H](CCc2ccc(C(F)(F)F)c(OC)c2)NC(=O)CN(C)C(=O)[C@H](Cc2ccc(C)cc2)N2CC/C=C\C[C@@H](C2=O)N(C)C(=O)CN(C)C1=O [PP1861] | B (a compound having 3 or more and less than 10 is denoted as B) | A (a compound having 10 or more and less than 20 is denoted as A) |
| CCC[C@H]1C(=O)N[C@@H]([C@@H](C)CC)C(=O)N(C)CC(=O)N(C)[C@H]2C/C=C\CCN(C2=O)[C@@H](Cc2ccc(C)cc2)C(=O)N(C)CC(=O)N[C@@H](CCc2cc(F)c(C(F)(F)F)c(F)c2)C(=O)N2C[C@H](C)C[C@H]2C(=O)NC2(CCC2)C(=O)N(C)[C@@H](C2CCCC2)C(=O)N(C)[C@H](C(=O)N(C)CC)CC(=O)N1C [PP1862] | A (a compound having 10 or more and less than 20 is denoted as A) | A (a compound having 10 or more and less than 20 is denoted as A) |
| CC[C@H](C)[C@@H]1NC(=O)[C@H](CC2CC2)N(C)C(=O)C[C@@H](C(=O)N(C)C)N(C)C(=O)[C@H](C2CCCC2)N(C)C(=O)C2(CCC2)NC(=O)[C@@H]2C[C@@H](C)CN2C(=O)[C@H](CCc2ccc(C(F)(F)F)c(OC)c2)NC(=O)CN(C)C(=O)[C@H](Cc2ccc(C)cc2)N2CC/C=C\C[C@@H](C2=O)N(C)C(=O)CN(C)C1=O [PP1863] | A (a compound having 10 or more and less than 20 is denoted as A) | A (a compound having 10 or more and less than 20 is denoted as A) |
| CC[C@H](C)[C@@H]1NC(=O)[C@H](CC(C)C)N(C)C(=O)C[C@@H](C(=O)N(C)C)N(C)C(=O)[C@H](C2CCCC2)N(C)C(=O)C2(CCC2)NC(=O)[C@@H]2C[C@H](C)CN2C(=O)[C@H](CCc2cc(F)c(C(F)(F)F)c(F)c2)NC(=O)CN(C)C(=O)[C@H](Cc2ccc(C)cc2)N2CC/C=C\C[C@@H](C2=O)N(C)C(=O)CN(C)C1=O [PP1864] | B (a compound having 3 or more and less than 10 is denoted as B) | A (a compound having 10 or more and less than 20 is denoted as A) |
| CC[C@H](C)[C@@H]1NC(=O)[C@H](CC(C)C)N(C)C(=O)C[C@@H](C(=O)N(C)C)N(C)C(=O)[C@H](C2CCCC2)N(C)C(=O)C2(CCC2)NC(=O)[C@@H]2C[C@H](C)CN2C(=O)[C@H](CCc2ccc(C(F)(F)F)c(OC)c2)NC(=O)CN(C)C(=O)[C@H](Cc2ccc(C)cc2)N2CC/C=C\C[C@@H](C2=O)N(C)C(=O)CN(C)C1=O [PP1865] | B (a compound having 3 or more and less than 10 is denoted as B) | A (a compound having 10 or more and less than 20 is denoted as A) |
| CC[C@H](C)[C@@H]1NC(=O)[C@H](CC(C)C)N(C)C(=O)C[C@@H](C(=O)N(C)C)N(C)C(=O)[C@H](C2CCCC2)N(C)C(=O)C2(CCC2)NC(=O)[C@@H]2C[C@@H](C)CN2C(=O)[C@H](CCc2cc(F)c(C(F)(F)F)c(F)c2)NC(=O)CN(C)C(=O)[C@H](Cc2ccc(C)cc2)N2CC/C=C\C[C@@H](C2=O)N(C)C(=O)CN(C)C1=O [PP1866] | B (a compound having 3 or more and less than 10 is denoted as B) | A (a compound having 10 or more and less than 20 is denoted as A) |
| CC[C@H](C)[C@@H]1NC(=O)[C@H](CC(C)C)N(C)C(=O)C[C@@H](C(=O)N(C)C)N(C)C(=O)[C@H](C2CCCC2)N(C)C(=O)C2(CCC2)NC(=O)[C@@H]2C[C@@H](C)CN2C(=O)[C@H](CCc2ccc(C(F)(F)F)c(OC)c2)NC(=O)CN(C)C(=O)[C@H](Cc2ccc(C)cc2)N2CC/C=C\C[C@@H](C2=O)N(C)C(=O)CN(C)C1=O [PP1867] | B (a compound having 3 or more and less than 10 is denoted as B) | A (a compound having 10 or more and less than 20 is denoted as A) |
| CCO[C@@H]1C[C@H]2C(=O)NC3(CCC3)C(=O)N(C)[C@@H](C3CCCC3)C(=O)N(C)[C@H](C(=O)N(C)CC)CC(=O)N(C)[C@@H](CC)C(=O)N[C@@H]([C@@H](C)CC)C(=O)N(C)CC(=O)N(C)[C@H]3C/C=C\CCN(C3=O)[C@@H](Cc3ccc(C)cc3)C(=O)N(C)CC(=O)N[C@@H](CCc3ccc(C(F)(F)F)c(OC)c3)C(=O)N2C1 [PP1869] | A (a compound having 10 or more and less than 20 is denoted as A) | A (a compound having 10 or more and less than 20 is denoted as A) |
| CC[C@H](C)[C@@H]1NC(=O)[C@H](CC)N(C)C(=O)C[C@@H](C(=O)N(C)CC)N(C)C(=O)[C@H](C2CCCC2)N(C)C(=O)C2(CC(C)(C)C2)NC(=O)[C@@H]2C[C@@H](C)CN2C(=O)[C@H](CCc2ccc(C(F)(F)F)c(OC)c2)NC(=O)CN(C)C(=O)[C@H](Cc2ccc(C)cc2)N2CC/C=C\C[C@@H](C2=O)N(C)C(=O)CN(C)C1=O [PP1870] | A (a compound having 10 or more and less than 20 is denoted as A) | A (a compound having 10 or more and less than 20 is denoted as A) |
| CCC[C@H]1C(=O)N[C@@H]([C@@H](C)CC)C(=O)N(C)CC(=O)N(C)[C@H]2C/C=C\CCN(C2=O)[C@@H](Cc2ccc(C)cc2)C(=O)N(C)CC(=O)N[C@@H](CCc2ccc(C(F)(F)F)c(OC)c2)C(=O)N2C[C@H](OCC)C[C@H]2C(=O)NC2(CCC2)C(=O)N(C)[C@@H](C2CCCC2)C(=O)N(C)[C@H](C(=O)N(C)C)CC(=O)N1C [PP1871] | A (a compound having 10 or more and less than 20 is denoted as A) | A (a compound having 10 or more and less than 20 is denoted as A) |
| CCO[C@@H]1C[C@H]2C(=O)NC3(CC(C)(C)C3)C(=O)N(C)[C@@H](C3CCCC3)C(=O)N(C)[C@H](C(=O)N(C)CC)CC(=O)N(C)[C@@H](CC)C(=O)N[C@@H]([C@@H](C)CC)C(=O)N(C)CC(=O)N(C)[C@H]3C/C=C\CCN(C3=O)[C@@H](Cc3ccc(C)cc3)C(=O)N(C)CC(=O)N[C@@H](CCc3ccc(C(F)(F)F)c(OC)c3)C(=O)N2C1 [PP1872] | A (a compound having 10 or more and less than 20 is denoted as A) | A (a compound having 10 or more and less than 20 is denoted as A) |
| CCO[C@@H]1C[C@H]2C(=O)NC3(CC(C)(C)C3)C(=O)N(C)[C@@H](C3CCCC3)C(=O)N(C)[C@H](C(=O)N(C)C)CC(=O)N(C)[C@@H](CC)C(=O)N[C@@H]([C@@H](C)CC)C(=O)N(C)CC(=O)N(C)[C@H]3C/C=C\CCN(C3=O)[C@@H](Cc3ccc(C)cc3)C(=O)N(C)CC(=O)N[C@@H](CCc3ccc(C(F)(F)F)c(OC)c3)C(=O)N2C1 [PP1873] | B (a compound having 3 or more and less than 10 is denoted as B) | A (a compound having 10 or more and less than 20 is denoted as A) |
| CC[C@H](C)[C@@H]1NC(=O)[C@H](CC)N(C)C(=O)C[C@@H](C(=O)N(C)CC)N(C)C(=O)[C@H](C2CCCC2)N(C)C(=O)C2(CC(C)(C)C2)NC(=O)[C@@H]2C[C@H](C)CN2C(=O)[C@H](CCc2ccc(C(F)(F)F)c(Cl)c2)NC(=O)CN(C)C(=O)[C@H](Cc2ccc(C)cc2)N2CC/C=C\C[C@@H](C2=O)N(C)C(=O)CN(C)C1=O [PP1874] | A (a compound having 10 or more and less than 20 is denoted as A) | A (a compound having 10 or more and less than 20 is denoted as A) |
| CC[C@H](C)[C@@H]1NC(=O)[C@H](CC)N(C)C(=O)C[C@@H](C(=O)N(C)CC)N(C)C(=O)[C@H](C2CCCC2)N(C)C(=O)C2(CC(C)(C)C2)NC(=O)[C@@H]2C[C@@H](C)CN2C(=O)[C@H](CCc2ccc(C(F)(F)F)c(Cl)c2)NC(=O)CN(C)C(=O)[C@H](Cc2ccc(C)cc2)N2CC/C=C\C[C@@H](C2=O)N(C)C(=O)CN(C)C1=O [PP1876] | A (a compound having 10 or more and less than 20 is denoted as A) | A (a compound having 10 or more and less than 20 is denoted as A) |
| CCO[C@@H]1C[C@H]2C(=O)NC3(CCC3)C(=O)N(C)[C@@H](C3CCCC3)C(=O)N(C)[C@H](C(=O)N(C)CC)CC(=O)N(C)[C@@H](CC3CC3)C(=O)N[C@@H]([C@@H](C)CC)C(=O)N(C)CC(=O)N(C)[C@H]3C/C=C\CCN(C3=O)[C@@H](Cc3ccc(C)cc3)C(=O)N(C)CC(=O)N[C@@H](CCc3ccc(C(F)(F)F)c(OC)c3)C(=O)N2C1 [PP1879] | B (a compound having 3 or more and less than 10 is denoted as B) | A (a compound having 10 or more and less than 20 is denoted as A) |
